# What was measured:
# [1] = target: T1, Dihydropteroate synthase (Bacillus anthracis) (UniProt Q81VW8); test: Inhibition of Bacillus anthracis DHPS at 200 uM after 10 mins
# T1 sequence (whole entry): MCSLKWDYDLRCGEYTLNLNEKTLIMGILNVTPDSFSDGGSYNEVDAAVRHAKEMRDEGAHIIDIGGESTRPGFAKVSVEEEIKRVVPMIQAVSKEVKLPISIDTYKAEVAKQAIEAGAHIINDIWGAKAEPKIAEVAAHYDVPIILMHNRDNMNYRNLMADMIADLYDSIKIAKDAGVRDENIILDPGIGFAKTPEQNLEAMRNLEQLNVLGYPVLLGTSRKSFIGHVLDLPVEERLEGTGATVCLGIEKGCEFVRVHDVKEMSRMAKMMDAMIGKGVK
# [2] = target: T1, Dihydropteroate synthase (Bacillus anthracis); test: Inhibition of Bacillus anthracis DHPS at 200 uM
compound,measurement,setting,value
Nc1nc2ncc(N(CCCP(=O)(O)O)Cc3ccc(C(=O)O)cc3)cc2c(=O)[nH]1,inhibition,[1],44.3%
same,inhibition,[2],32.9%
Nc1nc2ncc(N(CCP(=O)(O)O)Cc3ccc(C(=O)O)cc3)cc2c(=O)[nH]1,inhibition,[1],30.5%
same,inhibition,[2],16.3%
Nc1nc2c(c(=O)[nH]1)C[C@@H](N(CCCP(=O)(O)O)Cc1ccc(C(=O)O)cc1)CN2,inhibition,[1],6.3%
same,inhibition,[2],3.9%
Nc1nc2c(c(=O)[nH]1)CC(N(CCP(=O)(O)O)Cc1ccc(C(=O)O)cc1)CN2 (stereo not drawn),inhibition,[1],5.7%
same,inhibition,[2],3.6%
